Measured values: patent US20220218639A1
Several values for one entry are separate records, joined by “and”; a condition that tells them apart may be missing. Equal entries are not always repeated.

Key:
δ-plasmin = biological target: T1, δ-plasmin (Homo sapiens, UniProt P00747, DEL181-559); assay: S-2251 inhibition assay (Dixon plot), δ-plasmin; assay type: biochemical; settings: for mode of inhibition (δ-plasmin): Dixon plot with S/Vo vs I plot; for Ki: Dixon plot, S-2251 100, 350, 750 μM, enzyme 1.0 μg/mL, PBS pH 7.4, unit inferred; for Pen X-Fold inhibition (Delta Plasmin): Ki of the inhibitor relative to Ki of pentamidine
T1 construct: made in house; host or cells: E. coli (T7 expression system, pET 24b(+))

plasmin [1] = biological target: T2, plasmin (Homo sapiens, UniProt P00747); assay: S-2251 inhibition assay (Dixon plot), plasmin; assay type: biochemical; parameters: purchased Sigma-Aldrich; settings: for mode of inhibition (plasmin): Dixon plot with S/Vo vs I plot; for Ki: Dixon plot, S-2251 100, 350, 750 μM, enzyme 1.0 μg/mL, PBS pH 7.4, unit inferred; for Pen X-Fold inhibition (Plasmin): Ki of the inhibitor relative to Ki of pentamidine
Procedure: Inhibition Assays: Inhibition assays were carried out at a fixed plasmin concentration in the presence of a range of small molecule inhibitor concentrations from (0-1500 μM) and at least three different S-2251 substrate concentrations ranging from (0-750 μM). Ki values for both full length/native plasmin (sigma plasmin) and delta-plasmin for the small molecule inhibitors and nanoparticles were calculated based on the x-axis value at the negative intersection point of the inhibition curves at the different S-2251 substrate concentrations at a constant plasmin concentration. All experiments were carried out in triplicate and data represents means plus or minus standard deviations.

plasmin [2] = biological target: T2, plasmin; assay: Fluorescence titration dissociation constant (Kd) assay; assay type: binding; parameters: purchased Sigma-Aldrich; host or cells: human plasma; settings: emission 370 nm, PBS pH 7.4, no S-2251; unit inferred; read-out: Kd by fluorescence titration (PB Fl Ki)
Procedure: Fluorescence Titration Dissociation Constant (Kd) Assay. Plasmin was titrated with increasing concentrations of 4-aminobenzamidine from 0-1000 μM in PBS buffer at pH 7.4. By monitoring the increase in fluorescence emission (excitation 280 nm, emission at 370 nm) from 4-aminobenzamdine associated plasmin, a direct determination of its dissociation constant (Kd) can be made. Fitting the data to a sigmoid the Kd value for 4-aminobenzamidine to sigma plasmin is the concentration of inhibitor at which 50% (or 0.5 or half maximum fluorescent emission is reached) intersects with the fit.
Fluorescent titration assay was carried out as described above for determining the Kd, which is the same as the Ki in the case of competitive inhibition, for the 4-aminobenzamidine derivative to plasmin in the absence of the S-2251 substrate.
p-Aminobenzamidine's fluorescent properties enable the implementation of a fluorescent titration assay to directly determine its binding affinity to plasmin. […] At a constant plasmin concentration, increasing amounts of p-aminobenzamidine were titrated into the sample monitoring the fluorescence emission at 370 nm (FIG. 10A).

[3] = Enzyme kinetics with S-2251 chromogenic substrate (Lineweaver-Burke plot); assay type: biochemical; parameters: Kcat: unit not given here; settings: for Kcat: S-2251 substrate, PBS pH 7.4, unit not given
Procedure: Enzyme Kinetic and Inhibition Assays. All enzymatic assays were conducted in phosphate buffered saline (PBS, pH 7.4) at 25° C. on a Molecular Devices SpectraMax Plus 96 well plate reader. The S-2251 assay took advantage of a shift in absorbance of the substrate upon cleaving that could be monitored at a wavelength of 405 nm to determine enzyme kinetics as well as competitive inhibition Ki values for plasmin and its derivatives. […] Initial velocities were determined by the slope of the first 60 seconds of reaction with the S-2251 substrate. All experiments were carried out in triplicate and data represents means plus or minus standard deviations.
In this Example, the predicted kinetic characteristics of plasmin and delta-plasmin were compared. KM, Vmax and Kcat were determined for both full length plasmin and delta plasmin using a Lineweaver-Burke plot in which the concentration of plasmin was held constant across a range of S-2251 substrate concentrations (0-750 μM). Initial velocities for each data point were determined by the slope of the first 60 seconds of reaction with the S-2251 substrate following absorbance at 405 nm.
The Km and Kcat for the two forms of plasmin were determined utilizing an S2251 chromogenic substrate.

blood clots = assay: Clot digestion assay in serum; settings: 50% serum, 2 hours room temp, background-corrected
Procedure: In this Example, blood clot digestion by nanoparticles prepared using 4-carboxybenzamidine conjugated micelles and delta plasmin was analyzed in both PBS and serum.
Fresh blood was drawn and clotted in glass tubes at 37° C. for 1.5 hours. Clots were then cut, excess liquid was removed via light blotting, and weighed to produce clots of ˜600 mg size. Clots were then transferred to phosphate buffered saline (PBS at pH 7.4) or serum. […] After incubation, the blood clots were again lightly blotted and weighed. Experimental parameters are summarized in Table 3 for the clot digestion assay performed in serum.

T2 sequence (P00747 581-810 limits assumed): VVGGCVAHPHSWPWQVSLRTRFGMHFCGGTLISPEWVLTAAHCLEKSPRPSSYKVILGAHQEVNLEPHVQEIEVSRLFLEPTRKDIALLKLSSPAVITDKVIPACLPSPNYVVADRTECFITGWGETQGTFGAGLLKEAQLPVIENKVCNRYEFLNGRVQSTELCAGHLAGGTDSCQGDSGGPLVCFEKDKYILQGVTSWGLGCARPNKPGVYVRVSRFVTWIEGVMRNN
T2 sequence (P00747 97-580 partner limits assumed): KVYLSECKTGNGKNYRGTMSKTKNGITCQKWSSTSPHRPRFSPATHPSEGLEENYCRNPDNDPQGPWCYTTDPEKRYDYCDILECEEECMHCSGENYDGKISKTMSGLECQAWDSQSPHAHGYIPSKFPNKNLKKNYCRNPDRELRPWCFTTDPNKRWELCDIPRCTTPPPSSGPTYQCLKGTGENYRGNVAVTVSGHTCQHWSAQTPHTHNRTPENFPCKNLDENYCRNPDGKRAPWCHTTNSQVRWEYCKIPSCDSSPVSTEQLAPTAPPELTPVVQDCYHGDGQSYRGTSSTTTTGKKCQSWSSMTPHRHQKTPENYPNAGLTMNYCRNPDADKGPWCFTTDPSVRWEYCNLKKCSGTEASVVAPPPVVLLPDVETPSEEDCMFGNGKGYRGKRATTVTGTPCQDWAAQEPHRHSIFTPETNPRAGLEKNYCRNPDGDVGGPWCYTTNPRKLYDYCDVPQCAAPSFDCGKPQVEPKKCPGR
T1 sequence (P00747 with tags, fused parts or gaps K528E/G536N/V538P/G539Q/N547D/R549E/L551R/V557I/P558L/Q559E): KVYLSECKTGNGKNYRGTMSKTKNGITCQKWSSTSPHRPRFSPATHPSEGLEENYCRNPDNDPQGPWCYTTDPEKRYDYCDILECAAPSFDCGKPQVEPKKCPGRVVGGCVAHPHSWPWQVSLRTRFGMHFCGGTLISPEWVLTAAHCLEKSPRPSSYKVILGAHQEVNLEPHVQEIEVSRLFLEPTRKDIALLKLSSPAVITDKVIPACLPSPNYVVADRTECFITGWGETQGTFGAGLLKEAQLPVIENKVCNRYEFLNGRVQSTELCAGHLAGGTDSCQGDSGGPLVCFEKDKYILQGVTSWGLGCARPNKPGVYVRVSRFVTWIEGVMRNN

| Compound | mode of inhibition (δ-plasmin) (δ-plasmin) | Ki (δ-plasmin) | Pen X-Fold inhibition (Delta Plasmin) (δ-plasmin) | mode of inhibition (plasmin) (plasmin [1]) | Ki (plasmin [1]) | Pen X-Fold inhibition (Plasmin) (plasmin [1]) | Kd (plasmin [2]) | stronger inhibition than the next best inhibitor (delta plasmin) (δ-plasmin; from Ki values) | stronger inhibition than the next best inhibitor (plasmin) (plasmin [1]; from Ki values) | Vmax ([3]; S-2251 0-750 μM, PBS pH 7.4, 25° C.) | Km ([3]; S-2251 0-750 μM, PBS pH 7.4, 25° C., unit inferred) | Kcat [3] | Kcat ([3]; listed as δ-plasmin) | clot digestion (blood clots) |
| --- | --- | --- | --- | --- | --- | --- | --- | --- | --- | --- | --- | --- | --- | --- |
| N=C(N)c1ccc(N)cc1 [4-Aminobenzamidine] | purely competitive | 60.6 ± 6.72 µM | 15.2 | purely competitive | 51.9 ± 2.38 µM | 23.8 | 53.5 ± 4.42 µM | – | – | – | – | – | – | – |
| N=C(N)c1ccc(CN)cc1 [4-Aminomethyl Benzamidine] | purely competitive | > 1000 µM and 1410 µM | 353.8 | purely competitive | > 1000 µM and 1070 µM | 493.0 | – | – | – | – | – | – | – | – |
| N=C(N)c1ccc(C(=O)O)cc1 [4-Carboxybenzamidine] | purely competitive | 302 ± 19.2 µM | 75.8 | purely competitive | 292 µM and 293 µM | 134.2 | – | – | – | – | – | – | – | – |
| N=C(N)c1ccccc1 [Benzamidine] | purely competitive | – | – | purely competitive | – | – | – | – | – | – | – | – | – | – |
| N=C(N)c1ccc(OCCCCCOc2ccc(C(=N)N)cc2)cc1 [Pentamidine] | primarily competitive | – | – | primarily competitive | < 4 µM and 2.2 µM | – | – | > 15 fold | > 15 fold | – | – | – | – | – |
| Delta Plasmin: Recombinant plasmin variant with K2-K5 deleted; kringle 1 linked directly with the catalytic domain (SEQ ID NO:2 zymogen) | – | – | – | – | – | – | – | – | – | 19.5 | 325 ± 8.43 µM | 778.2 | 778.21±1.51 | 7.175% |
